Assays:
Format in all cases: biochemical
NEK2 = target: T1, NEK2 (Homo sapiens, UniProt P51955); assay: kinase inhibition, NEK2
T1 sequence (P51955 1-445): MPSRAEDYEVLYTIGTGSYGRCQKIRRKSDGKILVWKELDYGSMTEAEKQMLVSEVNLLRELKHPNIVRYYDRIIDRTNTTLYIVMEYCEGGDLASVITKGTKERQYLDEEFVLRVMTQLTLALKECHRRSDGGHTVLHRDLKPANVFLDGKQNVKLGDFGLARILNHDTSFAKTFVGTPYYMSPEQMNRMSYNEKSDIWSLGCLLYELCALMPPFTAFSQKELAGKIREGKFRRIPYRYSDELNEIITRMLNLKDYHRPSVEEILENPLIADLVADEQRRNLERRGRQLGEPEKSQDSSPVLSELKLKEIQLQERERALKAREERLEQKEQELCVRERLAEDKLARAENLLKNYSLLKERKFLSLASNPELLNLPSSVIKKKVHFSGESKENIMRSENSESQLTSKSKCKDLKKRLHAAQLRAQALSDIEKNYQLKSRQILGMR

NEK6 = NEK6 (Homo sapiens, UniProt Q9HC98); assay: kinase inhibition, NEK6
Sequence of NEK6 (Q9HC98 whole entry, species assumed): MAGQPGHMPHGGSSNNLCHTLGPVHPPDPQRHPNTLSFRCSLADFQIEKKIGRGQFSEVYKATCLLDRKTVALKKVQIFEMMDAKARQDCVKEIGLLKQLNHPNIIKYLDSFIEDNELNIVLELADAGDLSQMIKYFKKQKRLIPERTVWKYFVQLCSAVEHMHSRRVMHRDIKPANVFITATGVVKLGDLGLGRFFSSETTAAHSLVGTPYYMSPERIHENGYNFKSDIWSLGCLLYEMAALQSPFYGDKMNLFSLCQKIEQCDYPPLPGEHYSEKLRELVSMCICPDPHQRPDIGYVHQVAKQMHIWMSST

NEK7 = NEK7 (Homo sapiens, UniProt Q8TDX7); assay: kinase inhibition, NEK7
Sequence of NEK7 (Q8TDX7 whole entry, species assumed): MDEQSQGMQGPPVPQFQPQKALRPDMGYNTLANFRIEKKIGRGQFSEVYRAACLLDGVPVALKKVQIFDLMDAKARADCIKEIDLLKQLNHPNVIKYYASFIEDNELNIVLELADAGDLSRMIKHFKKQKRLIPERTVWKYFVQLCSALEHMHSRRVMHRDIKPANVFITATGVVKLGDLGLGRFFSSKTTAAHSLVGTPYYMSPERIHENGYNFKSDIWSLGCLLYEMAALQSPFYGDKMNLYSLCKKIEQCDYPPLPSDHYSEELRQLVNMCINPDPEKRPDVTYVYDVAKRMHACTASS

NEK9 = target: T2, NEK9 (Homo sapiens, UniProt Q8TD19); assay: kinase inhibition, NEK9
T2 sequence (Q8TD19 1-979): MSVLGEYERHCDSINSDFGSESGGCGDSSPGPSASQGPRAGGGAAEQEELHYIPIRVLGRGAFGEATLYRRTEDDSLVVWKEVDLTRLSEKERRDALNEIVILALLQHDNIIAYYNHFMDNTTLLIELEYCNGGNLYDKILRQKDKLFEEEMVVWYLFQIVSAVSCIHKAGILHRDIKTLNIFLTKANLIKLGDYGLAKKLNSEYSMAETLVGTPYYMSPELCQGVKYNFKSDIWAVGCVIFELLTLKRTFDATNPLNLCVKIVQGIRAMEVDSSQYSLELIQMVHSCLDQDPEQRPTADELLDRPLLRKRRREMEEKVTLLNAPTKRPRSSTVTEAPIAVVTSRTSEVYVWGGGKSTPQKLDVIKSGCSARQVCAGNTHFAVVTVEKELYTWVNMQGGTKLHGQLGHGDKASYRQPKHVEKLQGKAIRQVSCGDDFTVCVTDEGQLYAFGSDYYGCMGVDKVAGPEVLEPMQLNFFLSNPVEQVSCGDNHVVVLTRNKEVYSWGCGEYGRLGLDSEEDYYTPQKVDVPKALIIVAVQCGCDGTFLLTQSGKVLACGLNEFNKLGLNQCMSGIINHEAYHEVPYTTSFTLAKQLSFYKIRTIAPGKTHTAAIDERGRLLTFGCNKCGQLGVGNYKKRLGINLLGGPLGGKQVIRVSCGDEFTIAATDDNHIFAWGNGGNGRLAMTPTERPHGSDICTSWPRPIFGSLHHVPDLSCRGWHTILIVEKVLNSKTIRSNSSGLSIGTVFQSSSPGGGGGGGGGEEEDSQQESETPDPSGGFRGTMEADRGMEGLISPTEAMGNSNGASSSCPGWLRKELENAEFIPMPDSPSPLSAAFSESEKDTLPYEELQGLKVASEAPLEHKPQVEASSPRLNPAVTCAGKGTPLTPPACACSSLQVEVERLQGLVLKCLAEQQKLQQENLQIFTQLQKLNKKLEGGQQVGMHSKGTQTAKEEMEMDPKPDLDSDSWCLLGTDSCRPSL

GSK3B = GSK3B (Homo sapiens, UniProt P49841); assay: kinase inhibition, GSK3B
Sequence of GSK3B (P49841 whole entry, species assumed): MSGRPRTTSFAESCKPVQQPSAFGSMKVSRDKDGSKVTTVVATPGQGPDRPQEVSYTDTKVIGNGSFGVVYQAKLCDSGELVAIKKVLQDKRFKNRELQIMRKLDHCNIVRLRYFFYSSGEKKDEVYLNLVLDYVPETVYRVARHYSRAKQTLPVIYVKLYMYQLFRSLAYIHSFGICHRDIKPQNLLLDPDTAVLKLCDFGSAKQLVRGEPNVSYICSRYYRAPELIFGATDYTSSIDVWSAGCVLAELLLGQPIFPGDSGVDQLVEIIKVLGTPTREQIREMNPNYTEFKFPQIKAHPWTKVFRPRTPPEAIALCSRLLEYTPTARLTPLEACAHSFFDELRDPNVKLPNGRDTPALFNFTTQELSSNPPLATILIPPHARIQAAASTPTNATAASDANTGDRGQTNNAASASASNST

MERTK = target: T3, MERTK (Homo sapiens, UniProt Q12866); assay: kinase inhibition, MERTK
T3 sequence (Q12866 21-999): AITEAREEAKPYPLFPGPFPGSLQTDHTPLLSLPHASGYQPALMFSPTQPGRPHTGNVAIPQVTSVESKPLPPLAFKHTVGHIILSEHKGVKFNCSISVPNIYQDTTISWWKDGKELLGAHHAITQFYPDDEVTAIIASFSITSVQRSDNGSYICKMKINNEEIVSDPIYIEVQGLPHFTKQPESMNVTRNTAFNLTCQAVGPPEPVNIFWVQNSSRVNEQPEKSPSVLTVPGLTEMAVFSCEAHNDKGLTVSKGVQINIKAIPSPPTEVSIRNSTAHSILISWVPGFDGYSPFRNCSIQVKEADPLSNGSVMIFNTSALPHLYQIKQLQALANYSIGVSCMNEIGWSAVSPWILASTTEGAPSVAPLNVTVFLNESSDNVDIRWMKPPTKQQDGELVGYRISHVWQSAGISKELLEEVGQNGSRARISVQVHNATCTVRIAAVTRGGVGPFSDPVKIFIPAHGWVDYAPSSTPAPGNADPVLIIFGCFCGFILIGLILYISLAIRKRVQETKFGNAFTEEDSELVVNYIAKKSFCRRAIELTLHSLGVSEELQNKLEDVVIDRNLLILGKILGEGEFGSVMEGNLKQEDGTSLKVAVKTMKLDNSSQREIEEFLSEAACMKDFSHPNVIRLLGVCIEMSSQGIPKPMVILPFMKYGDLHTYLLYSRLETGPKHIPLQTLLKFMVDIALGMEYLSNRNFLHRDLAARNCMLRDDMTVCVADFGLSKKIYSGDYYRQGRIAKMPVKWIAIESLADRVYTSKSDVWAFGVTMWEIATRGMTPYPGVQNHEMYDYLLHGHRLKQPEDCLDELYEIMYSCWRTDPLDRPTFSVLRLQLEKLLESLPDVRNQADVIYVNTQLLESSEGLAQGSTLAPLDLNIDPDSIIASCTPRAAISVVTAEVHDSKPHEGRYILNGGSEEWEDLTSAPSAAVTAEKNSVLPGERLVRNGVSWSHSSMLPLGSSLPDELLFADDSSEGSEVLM

AXL = target: T4, AXL (Homo sapiens, UniProt P30530); assay: kinase inhibition, AXL
T4 sequence (P30530 26-894): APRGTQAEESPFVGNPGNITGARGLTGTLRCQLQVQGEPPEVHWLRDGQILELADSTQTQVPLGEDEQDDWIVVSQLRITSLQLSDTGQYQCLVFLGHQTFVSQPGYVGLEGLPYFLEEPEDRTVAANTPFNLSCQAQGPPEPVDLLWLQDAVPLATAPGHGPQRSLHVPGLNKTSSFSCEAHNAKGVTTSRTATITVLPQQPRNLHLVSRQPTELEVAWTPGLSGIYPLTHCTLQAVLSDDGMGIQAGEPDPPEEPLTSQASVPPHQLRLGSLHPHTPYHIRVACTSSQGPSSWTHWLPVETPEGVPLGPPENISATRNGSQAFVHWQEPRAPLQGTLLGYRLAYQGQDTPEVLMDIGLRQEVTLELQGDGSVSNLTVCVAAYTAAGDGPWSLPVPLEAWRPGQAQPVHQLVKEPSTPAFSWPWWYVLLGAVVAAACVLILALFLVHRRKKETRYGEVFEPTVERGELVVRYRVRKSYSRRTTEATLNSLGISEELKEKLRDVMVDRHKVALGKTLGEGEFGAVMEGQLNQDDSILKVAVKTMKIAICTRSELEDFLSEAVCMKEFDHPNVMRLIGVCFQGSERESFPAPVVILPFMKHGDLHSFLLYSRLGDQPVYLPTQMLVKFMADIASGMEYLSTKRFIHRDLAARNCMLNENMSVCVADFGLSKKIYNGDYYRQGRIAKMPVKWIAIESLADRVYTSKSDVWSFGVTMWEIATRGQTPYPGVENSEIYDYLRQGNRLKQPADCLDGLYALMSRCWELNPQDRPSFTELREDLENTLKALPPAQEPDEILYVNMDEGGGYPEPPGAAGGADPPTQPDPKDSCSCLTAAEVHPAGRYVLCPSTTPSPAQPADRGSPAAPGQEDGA

RSK1 = RSK1 (Homo sapiens, UniProt Q15418); assay: kinase inhibition, RSK1
Sequence of RSK1 (Q15418 whole entry, species assumed): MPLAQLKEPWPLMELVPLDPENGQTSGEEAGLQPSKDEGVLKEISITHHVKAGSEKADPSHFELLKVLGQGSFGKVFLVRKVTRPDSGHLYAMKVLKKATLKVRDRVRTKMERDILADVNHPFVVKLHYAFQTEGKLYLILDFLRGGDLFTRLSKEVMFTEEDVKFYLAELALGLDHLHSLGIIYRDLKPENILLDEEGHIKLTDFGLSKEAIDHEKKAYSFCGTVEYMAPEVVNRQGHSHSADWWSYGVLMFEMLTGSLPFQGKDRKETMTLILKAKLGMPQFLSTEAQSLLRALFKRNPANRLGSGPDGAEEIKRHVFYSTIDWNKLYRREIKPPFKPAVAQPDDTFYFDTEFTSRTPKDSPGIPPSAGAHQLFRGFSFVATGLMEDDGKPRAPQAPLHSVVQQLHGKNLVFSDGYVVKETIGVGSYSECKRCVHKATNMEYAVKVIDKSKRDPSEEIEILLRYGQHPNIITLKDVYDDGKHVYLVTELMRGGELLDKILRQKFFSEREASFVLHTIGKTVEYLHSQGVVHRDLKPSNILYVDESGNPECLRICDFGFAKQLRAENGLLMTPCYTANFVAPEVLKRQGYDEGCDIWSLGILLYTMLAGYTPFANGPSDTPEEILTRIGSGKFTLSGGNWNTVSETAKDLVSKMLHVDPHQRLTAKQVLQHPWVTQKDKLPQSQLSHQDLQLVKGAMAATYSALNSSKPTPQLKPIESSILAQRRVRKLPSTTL

CLK = assay: kinase inhibition, CLK

Structure (SMILES): CN1CCN(c2ccc(Nc3ncc4c(n3)N3c5ccccc5CC3C(=O)N4C)cc2)CC1 (stereo not drawn) [Compound I-7]
- IC50 (NEK2): 0.05 to 0.25 µM
- IC50 (NEK6): 1 to 5 µM
- IC50 (NEK7): 0.25 to 1 µM
- IC50 (NEK9): ≤ 0.05 µM
- IC50 (GSK3B): 0.25 to 1 µM
- IC50 (MERTK): 0.25 to 1 µM
- IC50 (AXL): 0.25 to 1 µM
- IC50 (RSK1): 0.25 to 1 µM
- IC50 (CLK): 0.05 to 0.25 µM
